Source: ChEMBL document CHEMBL1134245, “Two novel and potent 3-[(o-methoxyphenyl)piperazinylethyl]-5-phenylthien” (Bioorg Med Chem Lett, 2001)

Assays:
[1] = target: T1, Alpha-1B adrenergic receptor (Homo sapiens, UniProt P35368); assay: Binding affinity towards human Alpha-1B adrenergic receptor
T1 sequence (P35368 whole entry): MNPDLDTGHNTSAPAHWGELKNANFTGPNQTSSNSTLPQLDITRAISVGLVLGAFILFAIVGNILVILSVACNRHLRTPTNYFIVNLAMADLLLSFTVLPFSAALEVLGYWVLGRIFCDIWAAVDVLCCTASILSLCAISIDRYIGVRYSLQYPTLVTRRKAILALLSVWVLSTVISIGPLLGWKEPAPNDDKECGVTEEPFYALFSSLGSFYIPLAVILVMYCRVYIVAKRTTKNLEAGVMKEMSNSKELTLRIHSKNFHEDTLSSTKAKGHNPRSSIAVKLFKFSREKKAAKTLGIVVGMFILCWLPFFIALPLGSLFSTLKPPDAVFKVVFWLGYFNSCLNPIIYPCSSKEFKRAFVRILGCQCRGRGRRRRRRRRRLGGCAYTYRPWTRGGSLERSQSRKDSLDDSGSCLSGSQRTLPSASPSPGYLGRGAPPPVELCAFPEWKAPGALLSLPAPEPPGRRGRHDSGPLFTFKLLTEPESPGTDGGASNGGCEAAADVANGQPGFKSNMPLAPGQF

[2] = target: T2, Alpha-1D adrenergic receptor (Rattus norvegicus, UniProt P23944); assay: In vitro functional activity at Alpha-1D adrenergic receptor in rat aorta; format: tissue-based; settings: read-out: pA2 (converted)
T2 sequence (P23944 whole entry): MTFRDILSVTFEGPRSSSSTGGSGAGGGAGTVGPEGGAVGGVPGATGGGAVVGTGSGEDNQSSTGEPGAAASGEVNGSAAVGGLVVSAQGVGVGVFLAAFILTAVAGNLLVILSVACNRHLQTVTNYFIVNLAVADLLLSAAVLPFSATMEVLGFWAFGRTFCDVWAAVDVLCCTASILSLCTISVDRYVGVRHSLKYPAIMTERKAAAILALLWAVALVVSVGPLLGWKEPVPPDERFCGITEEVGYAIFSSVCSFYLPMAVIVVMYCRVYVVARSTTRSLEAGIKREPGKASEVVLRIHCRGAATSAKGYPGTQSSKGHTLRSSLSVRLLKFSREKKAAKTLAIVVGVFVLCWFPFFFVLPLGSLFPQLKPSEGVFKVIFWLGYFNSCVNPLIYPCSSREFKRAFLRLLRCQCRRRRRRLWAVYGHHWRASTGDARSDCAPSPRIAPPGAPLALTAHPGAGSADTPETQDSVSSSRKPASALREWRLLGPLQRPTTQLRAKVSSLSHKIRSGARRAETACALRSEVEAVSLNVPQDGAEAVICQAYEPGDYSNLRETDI

D(2) dopamine receptor = D(2) dopamine receptor (Rattus norvegicus, UniProt P61169); assay: Ancillary Binding affinity towards rat Dopamine receptor D2
Sequence of D(2) dopamine receptor (P61169 whole entry): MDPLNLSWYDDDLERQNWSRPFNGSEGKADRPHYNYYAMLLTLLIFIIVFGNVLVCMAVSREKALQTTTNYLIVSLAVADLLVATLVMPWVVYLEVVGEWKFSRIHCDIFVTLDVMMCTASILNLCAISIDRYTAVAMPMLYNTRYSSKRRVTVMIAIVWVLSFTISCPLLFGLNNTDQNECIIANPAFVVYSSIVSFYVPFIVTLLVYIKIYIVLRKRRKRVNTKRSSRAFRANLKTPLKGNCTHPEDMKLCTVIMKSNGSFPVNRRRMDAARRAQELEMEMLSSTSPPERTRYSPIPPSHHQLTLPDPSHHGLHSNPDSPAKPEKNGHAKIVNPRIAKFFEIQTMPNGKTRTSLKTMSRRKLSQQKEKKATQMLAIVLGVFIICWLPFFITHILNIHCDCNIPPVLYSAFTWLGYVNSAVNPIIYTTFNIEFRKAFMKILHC

[3] = Ancillary Binding affinity towards rat 5-hydroxytryptamine 2 receptor
[4] = target: T2, Alpha-1D adrenergic receptor; assay: In vitro functional activity at Alpha-1D receptor in rat aorta; format: tissue-based; settings: read-out: pA2 (converted)

| Ki [1] [nM] | Kb [2] [nM] | Ki (D(2) dopamine receptor) [nM] | Kb [4] [nM] | Structure (SMILES) | Ki [3] [nM] |
| --- | --- | --- | --- | --- | --- |
| 4.66 | 0.0251 | 50 | – | COc1ccccc1N1CCN(CCn2c(=O)[nH]c3scc(-c4ccccc4)c3c2=O)CC1 [A-119637] | 137 |
| 9.09 | – | 17 | 0.02 | COc1ccccc1N1CCN(CCn2c(=O)[nH]c3scc(-c4cccc(C)c4)c3c2=O)CC1 [A-123189] | 2190 |
